Results reported in EP4775582A1, “MACROCYCLIC COMPOUND AND ANTIBODY-DRUG CONJUGATE THEREOF” (Genfleet Therapeutics (Shanghai) Inc., priority 2023, dated 2025).
Converted amounts (≈) assume the structure as drawn. Like-named read-outs stand apart in the source and are kept apart here.

Tests used:
[1] = Solubility experiment (HPLC, external standard); type: physicochemical; conditions: 37 °C, 24 h; for solubility at 24 h: pH 7.4, pH 7.4 medium
Method in brief: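 Solid compound (about 1 mg per 1 mL medium) was shaken at 37 °C for 24 h in pH 1.2, 4.5 or 7.4 media, then centrifuged and the supernatant diluted with acetonitrile/water 50/50. Concentration in μg/mL was found by HPLC against an external standard prepared from a DMSO stock.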

AsPC-1 cells = test: 3D cell proliferation assay (CellTiter Glo-3D), AsPC-1; type: cell-based, human; conditions: AsPC-1 cells (KRAS G12D), 3D, 2% FBS, 5 days, read-out: AsPC-1 AP IC50
Method in brief: (§1)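 Cells seeded at 800 per well (AsPC-1, NCI-H441) in 2% FBS medium and incubated overnight at 37 °C, 5% CO2. Compounds added next day from 10× stock, then 5 days' further culture. Viability read by CellTiter-Glo luminescence; IC50 from four-parameter fit of inhibition versus log concentration.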

KRAS G12V-cRAF = KRAS G12V-cRAF (Homo sapiens, UniProt P01116+P62937, G12V); test: Assay for binding of KRAS to cRAF (HTRF, with Cyclophilin A), KRAS G12V
Procedure: (§3) The plate was centrifuged at 1000 rpm for 1 min and then incubated in the thermostatic incubator at 20 °C for 30 min. […] The plate was centrifuged at 1000 rpm for 1 min and then incubated in the thermostatic incubator at 20 °C for 60 min. […] The working solution was added to the aforementioned assay plate at 5 µL/well. The plate was centrifuged at 1000 rpm for 1 min and then incubated in the thermostatic incubator at 20 °C for 60 min.

AsPC-1 p-ERK = test: Cell p-ERK assay (HTRF), AsPC-1 cells; type: cell-based, human
Method in brief: (§2)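 AsPC-1 (10000/well) or NCI-H441 (20000/well) cells were seeded overnight and then exposed to compound for 3 h at 37 °C. Lysates were probed for ERK phospho-T202/Y204 by HTRF with a 4-hour antibody incubation. IC50 values came from four-parameter fits of inhibition against log concentration.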

H441 p-ERK = test: Cell p-ERK assay (HTRF), NCI-H441 cells; type: cell-based, human; conditions: NCI-H441 cells (KRAS G12V), 3 h incubation
Method in brief: as §2

NCI-H441 cells = test: 3D cell proliferation assay (CellTiter Glo-3D), NCI-H441; type: cell-based, human; conditions: NCI-H441 cells (KRAS G12V), 2% FBS, 5 days, read-out: H441 AP IC50
Method in brief: as §1

KRAS WT-cRAF = KRAS WT-cRAF (Homo sapiens, UniProt P01116+P62937); test: Assay for binding of KRAS to cRAF (HTRF, with Cyclophilin A), KRAS WT
Procedure: as §3

[2] = KRAS G12V-cRAF binding assay(nM), GPPNP-KRAS G12V, IC50 values
[3] = Homo sapiens, ASPC1, AsPC-1 cells (KRAS G12D), 3 h incubation, read-out: AsPC-1 p-ERK IC50
[4] = KRAS WT-cRAF binding assay(nM), GPPNP-KRAS WT, IC50 values
[5] = read-out: KRAS G12V-cRAF binding assay, GPPNP-KRAS G12V, IC50 values
[6] = read-out: KRAS WT-cRAF binding assay, GPPNP-KRAS WT, IC50 values

Sequence of KRAS WT-cRAF (P01116 1-188 isoform P01116-2): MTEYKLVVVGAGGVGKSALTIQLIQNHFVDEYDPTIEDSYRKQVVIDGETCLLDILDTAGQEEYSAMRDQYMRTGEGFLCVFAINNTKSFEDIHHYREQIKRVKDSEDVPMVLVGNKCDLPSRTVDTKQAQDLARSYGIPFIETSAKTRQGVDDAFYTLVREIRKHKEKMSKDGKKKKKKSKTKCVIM
Sequence of KRAS WT-cRAF (P62937 whole entry): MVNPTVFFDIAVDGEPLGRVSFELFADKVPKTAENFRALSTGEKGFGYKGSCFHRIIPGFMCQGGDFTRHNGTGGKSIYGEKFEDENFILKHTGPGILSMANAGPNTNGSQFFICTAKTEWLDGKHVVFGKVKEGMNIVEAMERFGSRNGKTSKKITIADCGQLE
Sequence of KRAS G12V-cRAF (P01116 1-188 isoform P01116-2 G12V): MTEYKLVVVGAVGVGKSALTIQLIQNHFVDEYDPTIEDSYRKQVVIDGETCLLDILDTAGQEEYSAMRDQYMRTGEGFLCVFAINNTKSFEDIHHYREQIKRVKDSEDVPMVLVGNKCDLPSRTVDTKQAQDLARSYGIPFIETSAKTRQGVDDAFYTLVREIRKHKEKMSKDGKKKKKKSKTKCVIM
Sequence of KRAS G12V-cRAF (P62937 whole entry): as the sequence (P62937 whole entry) above

Compound	solubility at 24 h ([1]; pH 7.4 medium) [µg/mL]	IC50 (AsPC-1 cells; Homo sapiens, ASPC1, 120 h) [nM]	IC50 (KRAS G12V-cRAF; [2]) [nM]	IC50 (AsPC-1 p-ERK; [3]) [nM]	IC50 (H441 p-ERK; Homo sapiens) [nM]	IC50 (NCI-H441 cells; Homo sapiens, 120 h) [nM]	IC50 (KRAS WT-cRAF; [4]) [nM]	IC50 (KRAS G12V-cRAF; [5]) [nM]	IC50 (KRAS WT-cRAF; [6]) [nM]	further results
CCn1c(-c2cc(C#CCN3CCN(C(=O)CO)CC3)cnc2C(C)OC)c2c3cc(ccc31)-c1coc(n1)CC(NC(=O)C1C3COCC31)C(=O)N1CCCC(N1)C(=O)OCC(C)(C)C2 (atropisomer, axis not shown; (Ra)) [Compound Z44, (1R,5S,6r)-N-((6^3S,4S,Z)-(Ra)-1^2-(5-(3-(4-(2-hydroxyacetyl)piperazin-1-yl)prop-1-yn-1-yl)-2-((S)-1-methoxyethyl)pyridin-3-yl)-1^1-ethyl-10,10-dimethyl-5,7-dioxo-6^1,6^2,6^3,6^4,6^5,6^6-hexahydro-1^1H-8-oxa-2(4,2)-oxazola-1(5,3)-indola-6(1,3)-pyridazinacycloundecaphane-4-yl)-3-oxabicyclo[3.1.0]hexane-6-carboxamide]	55.8 (≈ 61.6 µM)	1.21	11.8	1.73	0.42	0.38	25.2			
CCn1c(-c2cc(C#CCN3CCN(C(=O)CO)CC3)cnc2[C@H](C)OC)c2c3cc(ccc31)-c1csc(n1)C[C@H](NC(=O)[C@H]1[C@@H]3COC[C@@H]31)C(=O)N1CCC[C@H](N1)C(=O)OCC(C)(C)C2 (atropisomer, axis not shown; (Ra)) [Compound Z34, (1R,5S,6r)-N-((6^3S,4S,Z)-1^1-ethyl-1^2-(5-(3-(4-(2-hydroxyacetyl)piperazin-1-yl)prop-1-yn-1-yl)-(Ra)-2-((S)-1-methoxyethyl)pyridin-3-yl)-10,10-dimethyl-5,7-dioxo-6^1,6^2,6^3,6^4,6^5,6^6-hexahydro-1^1H-8-oxa-2(4,2)-thiazola-1(5,3)-indola-6(1,3)-pyridazinacycloundecaphane-4-yl)-3-oxabicyclo[3.1.0]hexane-6-carboxamide]								17.1	25.3	Solubility at pH 7.4 (µg/mL) ([1]; pH 7.4 medium): 16.22 µg/mL; IC50 (AsPC-1 cells): 0.77 nM; IC50 (AsPC-1 p-ERK; AsPC-1 cells (KRAS G12D), 3 h incubation, read-out: AsPC-1 p-ERK IC50): 0.28 nM; IC50 (H441 p-ERK): 0.27 nM; IC50 (NCI-H441 cells): 0.47 nM
CCn1c(-c2cc(C#CCN3CCN(C(=O)CN)CC3)cnc2C(C)OC)c2c3cc(ccc31)-c1csc(n1)CC(NC(=O)C1C3COCC31)C(=O)N1CCCC(N1)C(=O)OCC(C)(C)C2 (atropisomer, axis not shown; (Ra)) [Compound Z47, (1R,5S,6r)-N-((6^3S,4S,Z)-1^1-ethyl-(Ra)-1^2-(5-(3-(4-glycylpiperazin-1-yl)prop-1-yn-1-yl)-2-((S)-1-methoxyethyl)pyridin-3-yl)-10,10-dimethyl-5,7-dioxo-6^1,6^2,6^3,6^4,6^5,6^6-hexahydro-1^1H-8-oxa-2(4,2)-thiazola-1(5,3)-indola-6(1,3)-pyridazinacycloundecaphane-4-yl)-3-oxabicyclo[3.1.0]hexane-6-carboxamide]	109 (≈ 118 µM)	1.2	19.3	2.33	0.58	0.75	34.4			
CCn1c(-c2cc(C#CCN3CCS(=O)(=O)CC3)cnc2C(C)NC)c2c3cc(ccc31)-c1csc(n1)CC(NC(=O)C1C(C)C1C)C(=O)N1CCCC(N1)C(=O)OCC(C)(C)C2 (atropisomer, axis not shown; (Ra)) [Compound Z67, (1r,2R,3S)-N-((6^3S,4S,Z)-(Ra)-1^2-(5-(3-(1,1-dioxidothiomorpholino)prop-1-yn-1-yl)-2-((R)-1-(methylamino)ethyl)pyridin-3-yl)-1-ethyl-10,10-dimethyl-5,7-dioxo-6^1,6^2,6^3,6^4,6^5,6^6-hexahydro-1^1H-8-oxa-2(4,2)-thiazola-1(5,3)-indola-6(1,3)-pyridazinacycloundecaphane-4-yl)-2,3-dimethylcyclopropane-1-carboxamide]	101 (≈ 113 µM)		8.7	10.6	8.12		62			
COCCn1c(-c2cc(C#CCN3CCN(C(=O)CO)CC3)c[n+]([O-])c2C(C)OC)c2c3cc(ccc31)-c1csc(n1)CC(NC(=O)C1C3COCC31)C(=O)N1CCCC(N1)C(=O)OCC(C)(C)C2 (atropisomer, axis not shown; (Ra)) [Compound Z38-1, (Ra)-3-((6^3S,4S,Z)-4-((1R,5S,6r)-3-oxabicyclo[3.1.0]hexane-6-carboxamido)-1^1-(2-methoxyethyl)-10,10-dimethyl-5,7-dioxo-6^1,6^2,6^3,6^4,6^5,6^6-hexahydro-1^1H-8-oxa-2(4,2)-thiazola-1(5,3)-indola-6(1,3)-pyridazinacycloundecaphane-1^2-yl)-5-(3-(4-(2-hydroxyacetyl)piperazin-1-yl)prop-1-yn-1-yl)-2-((S)-1-methoxyethyl)pyridine-1-oxide]	97 (≈ 100 µM)		37.7				69.6			
CCn1c(-c2cc(C#CCN3CCS(=O)(=O)CC3)cnc2C(C)OC)c2c3cc(ccc31)-c1csc(n1)CC(NC(=O)C1C3CNCC31)C(=O)N1CCCC(N1)C(=O)OCC(C)(C)C2 (atropisomer, axis not shown; (Ra)) [Compound Z18, (1R,5S,6r)-N-((6^3S,4S,Z)-(Ra)-1^2-(5-(3-(1,1-dioxidothiomorpholino)prop-1-yn-1-yl)-2-((S)-1-methoxyethyl)pyridin-3-yl)-1^1-ethyl-10,10-dimethyl-5,7-dioxo-6^1,6^2,6^3,6^4,6^5,6^6-hexahydro-1^1H-8-oxa-2(4,2)-thiazola-1(5,3)-indola-6(1,3)-pyridazinacycloundecaphane-4-yl)-3-azabicyclo[3.1.0]hexane-6-carboxamide]	22.4 (≈ 24.6 µM)		16.5				31			
COCCn1c(-c2cc(C#CCN3CCN(C(=O)CO)CC3)c[n+]([O-])c2[C@H](C)OC)c2c3cc(ccc31)-c1csc(n1)C[C@H](NC(=O)[C@H]1[C@H](C)[C@@H]1C)C(=O)N1CCC[C@H](N1)C(=O)OCC(C)(C)C2 (atropisomer, axis not shown; (Ra)) [Compound Z54, (Ra)-3-((6^3S,4S,Z)-4-((1r,2R,3S)-2,3-dimethylcyclopropane-1-carboxamido)-1^1-(2-methoxyethyl)-10,10-dimethyl-5,7-dioxo-6^1,6^2,6^3,6^4,6^5,6^6-hexahydro-11H-8-oxa-2(4,2)-thiazola-1(5,3)-indola-6(1,3)-pyridazinacyclodecaphane-1^2-yl)-5-(3-(4-(2-hydroxyacetyl)piperazin-1-yl)prop-1-yn-1-yl)-2-((S)-1-methoxyethyl)pyridine 1-oxide]		14				4.7		12.1	74.8	solubility at 24 h ([1]; ph 7.4 medium): 36.2 µg/mL (≈ 38 µM)
CCn1c(-c2cc(C#CCN3CCN(C(=O)CN)CC3)cnc2[C@H](C)OC)c2c3cc(ccc31)-c1coc(n1)C[C@H](NC(=O)[C@H]1[C@@H]3COC[C@@H]31)C(=O)N1CCC[C@H](N1)C(=O)OCC(C)(C)C2 (atropisomer, axis not shown; (Ra)) [Compound Z167, (1R,5S,6r)-N-((6^3S,4S,Z)-1^2-(5-(3-(4-glycylpiperazin-1-yl)prop-1-yn-1-yl)-(Ra)-2-((S)-1-methoxyethyl)pyridin-3-yl)-1^1-ethyl-10,10-dimethyl-5,7-dioxo-6^1,6^2,6^3,6^4,6^5,6^6-hexahydro-1^1H-8-oxa-2(4,2)-oxazola-1(5,3)-indola-6(1,3)-pyridazinacycloundecaphane-4-yl)-3-oxabicyclo[3.1.0]hexane-6-carboxamide]					1.27			13.9	40.9	solubility at 24 h ([1]; ph 7.4 medium): 363 µg/mL (≈ 401 µM); IC50 (AsPC-1 p-ERK; Homo sapiens, ASPC1, 3 h, read-out: AsPC-1 p-ERK IC50(nM)): 1.64 nM
